Experimental data published in ChEMBL document CHEMBL1201862, “PubChem BioAssay data set” (2004).
Counter-ions that a name gives are not always drawn.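 Interpolation was linear, between the two tested concentrations surrounding the appropriate level; five concentrations were tested over 48 hours in 96-well plates. GI50 marks 50% less growth.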 Calls of active or inactive are those of the source. Cut-off read from the data, not from the text of the source: active = GI50 up to about 1.1 µM and inactive = higher.

Columns and labels:
Assay in all cases: growth of human tumour cells (NCI), 48 h
SNB-75 = tested on: SNB-75
MDA-N = tested on: MDA-N
SN12C = tested on: SN12C
U-251 = tested on: U-251
HCT-15 = tested on: HCT-15
HT-29 = tested on: HT-29
UO-31 = tested on: UO-31
SF-539 = tested on: SF-539
RXF 393 = tested on: RXF 393
SK-MEL-5 = tested on: SK-MEL-5
786-0 = tested on: 786-0
CCRF-CEM = tested on: CCRF-CEM
SR = tested on: SR
OVCAR-8 = tested on: OVCAR-8
OVCAR-3 = tested on: OVCAR-3
HCC 2998 = tested on: HCC 2998
NCI-H226 = tested on: NCI-H226
A498 = tested on: A498
CAKI-1 = tested on: CAKI-1

Row | Structure (SMILES) | GI50 (SNB-75) | GI50 (MDA-N) | GI50 (SN12C) | GI50 (U-251) | GI50 (HCT-15) [µM] | GI50 (HT-29) | GI50 (UO-31) | GI50 (SF-539) | GI50 (RXF 393) | GI50 (SK-MEL-5) | GI50 (786-0) | GI50 (CCRF-CEM) | GI50 (SR) | GI50 (OVCAR-8) | GI50 (OVCAR-3) | GI50 (HCC 2998) | GI50 (NCI-H226) | GI50 (A498) | GI50 (CAKI-1)
1 | Cc1ccc(S(=O)(=O)NC(=O)NC(CC(N)=O)C(=O)O)cc1 (stereo not drawn) | > 100 µM (inactive) | > 100 µM (inactive) | > 100 µM (inactive) | > 100 µM (inactive) | > 100 | > 100 µM (inactive) | > 100 µM (inactive) | > 100 µM (inactive) | > 100 µM (inactive) | > 100 µM (inactive) | > 100 µM (inactive) | > 100 µM (inactive) | > 100 µM (inactive) | > 100 µM (inactive) | – | – | – | – | –
2 | COC(=O)CN(CC1O[C@@H]2OC(C)(C)O[C@@H]2C1N=[N+]=[N-])C(=O)OCc1ccccc1 (stereo partly drawn) | > 100 µM (inactive) | – | > 100 µM (inactive) | > 100 µM (inactive) | > 100 | > 100 µM (inactive) | > 100 µM (inactive) | > 100 µM (inactive) | – | > 100 µM (inactive) | > 100 µM (inactive) | – | > 100 µM (inactive) | > 100 µM (inactive) | > 100 µM (inactive) | > 100 µM (inactive) | > 100 µM (inactive) | > 100 µM (inactive) | > 100 µM (inactive)
3 | Cc1cc(C(=O)CBr)c(CN2C(=O)c3ccccc3C2=O)c(=O)n1C | 22.8 µM (inactive) | – | 17.6 µM (inactive) | 12.7 µM (inactive) | 12.6 | 14.2 µM (inactive) | 18.4 µM (inactive) | 16.2 µM (inactive) | 11 µM (inactive) | – | 21.8 µM (inactive) | 2.92 µM (inactive) | 1.64 µM (inactive) | 18.1 µM (inactive) | 17.2 µM (inactive) | 38.1 µM (inactive) | 49.5 µM (inactive) | – | 20.6 µM (inactive)
4 | O=S1(=O)c2ccccc2NC(=S)CC1c1ccccc1 (stereo not drawn) | > 100 µM (inactive) | > 100 µM (inactive) | > 100 µM (inactive) | > 100 µM (inactive) | > 100 | > 100 µM (inactive) | > 100 µM (inactive) | – | > 100 µM (inactive) | > 100 µM (inactive) | > 100 µM (inactive) | > 100 µM (inactive) | > 100 µM (inactive) | 72.9 µM (inactive) | > 100 µM (inactive) | – | > 100 µM (inactive) | – | > 100 µM (inactive)
5 | CC(=O)O[C@@]12[C@@H]3O[C@@]4(O)C[C@]5(C)[C@H]6C[C@@](C(C)C)(O[C@H]5c5ccoc5)O[C@H]1[C@]6(C4)O[C@]2(O)C(C)=CC3(C)C | 75.9 µM (inactive) | > 100 µM (inactive) | > 100 µM (inactive) | > 100 µM (inactive) | > 100 | > 100 µM (inactive) | > 100 µM (inactive) | > 100 µM (inactive) | > 100 µM (inactive) | > 100 µM (inactive) | 64.4 µM (inactive) | > 100 µM (inactive) | > 100 µM (inactive) | > 100 µM (inactive) | > 100 µM (inactive) | > 100 µM (inactive) | > 100 µM (inactive) | – | > 100 µM (inactive)
6 | N/N=C(\N)Nc1cccc2ccccc12 | > 100 µM (inactive) | – | > 100 µM (inactive) | > 100 µM (inactive) | > 100 | > 100 µM (inactive) | > 100 µM (inactive) | > 100 µM (inactive) | > 100 µM (inactive) | > 100 µM (inactive) | > 100 µM (inactive) | > 100 µM (inactive) | > 100 µM (inactive) | > 100 µM (inactive) | – | > 100 µM (inactive) | > 100 µM (inactive) | 33.3 µM (inactive) | –
7 | CC1(C)O[C@@H](CP(c2ccccc2)c2ccccc2)[C@H](CP(c2ccccc2)c2ccccc2)O1 | 6.55 µM (inactive) | 3.05 µM (inactive) | 4.11 µM (inactive) | 3.66 µM (inactive) | 12.3 | 0.675 µM (active) | > 10 µM (inactive) | 7 µM (inactive) | 8.15 µM (inactive) | 5.74 µM (inactive) | 6.15 µM (inactive) | 2.4 µM (inactive) | – | 4.06 µM (inactive) | 0.384 µM (active) | – | 6.52 µM (inactive) | 12.6 µM (inactive) | 21 µM (inactive)
8 | CC(C)=CC(C(O)c1ccccc1)S(=O)(=O)c1nccn1C (stereo not drawn) | > 100 µM (inactive) | – | > 100 µM (inactive) | > 100 µM (inactive) | > 100 | > 100 µM (inactive) | > 100 µM (inactive) | > 100 µM (inactive) | > 100 µM (inactive) | > 100 µM (inactive) | > 100 µM (inactive) | > 100 µM (inactive) | > 100 µM (inactive) | > 100 µM (inactive) | > 100 µM (inactive) | > 100 µM (inactive) | > 100 µM (inactive) | – | –
9 | COc1ccc(/C=c2\sc3n(c2=O)C(N)=C(C#N)C(c2ccc(OC)cc2)C=3c2nc3ccccc3[nH]2)cc1 (stereo not drawn) | 29.6 µM (inactive) | – | 78.7 µM (inactive) | 18 µM (inactive) | 27.1 | – | > 100 µM (inactive) | > 10 µM (inactive) | – | 16.9 µM (inactive) | > 100 µM (inactive) | 39.2 µM (inactive) | 39.5 µM (inactive) | > 10 µM (inactive) | 19.6 µM (inactive) | 16.4 µM (inactive) | 27 µM (inactive) | 29.6 µM (inactive) | 21.4 µM (inactive)
10 | CCOC(=O)c1nc2ccccc2nc1Nc1ccc(Cl)c(Cl)c1 | 20.9 µM (inactive) | 68.1 µM (inactive) | 81.5 µM (inactive) | 23.7 µM (inactive) | > 100 | > 100 µM (inactive) | 40.8 µM (inactive) | 60.5 µM (inactive) | – | 21.5 µM (inactive) | 29.2 µM (inactive) | > 10 µM (inactive) | > 100 µM (inactive) | 29.9 µM (inactive) | 59.3 µM (inactive) | > 100 µM (inactive) | – | – | 24.5 µM (inactive)
11 | O=C1c2c(nc3ccccc3c2-c2ccccc2)CN1Nc1ccccc1 | – | – | > 100 µM (inactive) | – | – | > 100 µM (inactive) | > 100 µM (inactive) | – | – | > 100 µM (inactive) | > 100 µM (inactive) | > 100 µM (inactive) | > 100 µM (inactive) | > 100 µM (inactive) | > 100 µM (inactive) | > 100 µM (inactive) | > 100 µM (inactive) | – | > 100 µM (inactive)
12 | Cn1c2c(c3ccccc31)CC1c3c(c4ccccc4n3C)CC21 (stereo not drawn) | > 100 µM (inactive) | > 100 µM (inactive) | > 100 µM (inactive) | > 100 µM (inactive) | > 100 | > 100 µM (inactive) | > 100 µM (inactive) | > 100 µM (inactive) | > 100 µM (inactive) | > 100 µM (inactive) | > 100 µM (inactive) | > 100 µM (inactive) | > 100 µM (inactive) | > 100 µM (inactive) | > 100 µM (inactive) | > 100 µM (inactive) | > 100 µM (inactive) | – | > 100 µM (inactive)
13 | O=C(O)/C(Cc1ccc([N+](=O)[O-])cc1)=N\O | – | > 100 µM (inactive) | > 100 µM (inactive) | > 100 µM (inactive) | > 100 | > 100 µM (inactive) | 23.8 µM (inactive) | > 100 µM (inactive) | > 100 µM (inactive) | > 100 µM (inactive) | > 100 µM (inactive) | 73.6 µM (inactive) | – | > 100 µM (inactive) | > 100 µM (inactive) | > 100 µM (inactive) | > 100 µM (inactive) | > 100 µM (inactive) | > 100 µM (inactive)
14 | CC(C)OC(=O)NCCn1cc(-c2ccccc2)nn1 | > 100 µM (inactive) | – | > 100 µM (inactive) | > 100 µM (inactive) | > 100 | > 100 µM (inactive) | – | > 100 µM (inactive) | – | > 100 µM (inactive) | > 100 µM (inactive) | > 100 µM (inactive) | > 100 µM (inactive) | > 100 µM (inactive) | – | > 100 µM (inactive) | > 100 µM (inactive) | – | > 100 µM (inactive)
15 | CSCCCNC(=O)c1csc(-c2csc(CCN)n2)n1 | – | – | 68.1 µM (inactive) | > 100 µM (inactive) | 54.8 | 82.8 µM (inactive) | 38.6 µM (inactive) | > 100 µM (inactive) | > 100 µM (inactive) | 93.1 µM (inactive) | > 100 µM (inactive) | 75.2 µM (inactive) | 91.4 µM (inactive) | > 100 µM (inactive) | > 100 µM (inactive) | > 100 µM (inactive) | – | – | > 100 µM (inactive)
16 | COc1cc(/C=C/c2ccc(OC)c(OC)c2)cc(OC)c1 [(E)-3,4,3',5'-TETRAMETHOXYSTILBENE] | 34 µM (inactive) | – | 31.3 µM (inactive) | 24.7 µM (inactive) | 7.08 | 19.3 µM (inactive) | 19.1 µM (inactive) | 41.3 µM (inactive) | 19.6 µM (inactive) | 19 µM (inactive) | 20.7 µM (inactive) | 76.9 µM (inactive) | 30.9 µM (inactive) | 39.6 µM (inactive) | 23.7 µM (inactive) | – | 30.2 µM (inactive) | – | 32.9 µM (inactive)
17 | O=C(OCCN1CCCCCC1)C(c1ccsc1)C1CCCCC1 (stereo not drawn) [CETIEDIL CITRATE] | 16.1 µM (inactive) | 14 µM (inactive) | 17.9 µM (inactive) | 17.2 µM (inactive) | 14.4 | 11.9 µM (inactive) | 13.3 µM (inactive) | 16.8 µM (inactive) | – | – | 16.5 µM (inactive) | 15.7 µM (inactive) | 26.6 µM (inactive) | 18.6 µM (inactive) | 15 µM (inactive) | 15.2 µM (inactive) | – | – | 14.5 µM (inactive)
